The values that follow are results of earlier work, collected in patent publication US20030039681A1, “Rapid growth dairy heifers having reduced mammary fat content” (priority 2001, published 2003).

The subject of one data set is adipose tissue. The following applies: growing pigs, CLA-supplement fed.
The next data set relates to lactating dairy cattle. To be noted: abomasal infusion.

For the substance conjugated linoleic acid [CLA], the proliferation of preadipocytes result with preadipocytes is listed as “inhibits”. In addition, in the data set on adipose tissue, the carcass lipid content result was “lower” and the “lipogenesis in adipose tissue” value is reported as “decreases”. For the same substance, the milk fat content entry with lactating dairy cattle is given as “decreases”.
